{"source": "patent US7575930B2", "about": "“Method for analyzing oligosaccharides from blood plasma” (priority 2005, dated 2009)", "key": {"ATIII": {"biological_target": "ATIII (Homo sapiens, UniProt P01008)", "sequence (P01008 33-464, species assumed)": "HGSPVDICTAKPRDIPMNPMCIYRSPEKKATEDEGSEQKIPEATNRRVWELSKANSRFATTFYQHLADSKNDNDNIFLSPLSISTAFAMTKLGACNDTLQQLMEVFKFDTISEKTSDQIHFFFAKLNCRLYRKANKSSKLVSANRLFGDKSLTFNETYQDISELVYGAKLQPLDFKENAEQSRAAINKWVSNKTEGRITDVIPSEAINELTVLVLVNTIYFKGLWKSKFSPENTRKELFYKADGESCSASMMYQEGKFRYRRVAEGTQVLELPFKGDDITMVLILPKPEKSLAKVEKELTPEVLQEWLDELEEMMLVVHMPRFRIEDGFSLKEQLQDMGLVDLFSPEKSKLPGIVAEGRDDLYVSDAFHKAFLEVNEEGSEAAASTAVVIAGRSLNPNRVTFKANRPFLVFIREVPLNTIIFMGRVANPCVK", "test": "Affinity for ATIII", "assay_type": "binding"}, "[1]": {"test": "Monitoring of the plasma concentration of 3 octasaccharides in beagle dogs after subcutaneous administration (plasma filtration + anion-exchange HPLC)", "assay_type": "in vivo, male dogs of the beagle breed", "conditions": "0.5 mg/kg each", "experimental": "(§1) A plasma sample with a volume of between 100 and 1000 μl is withdrawn and, if appropriate, the internal standard is added to the latter.\n(§2) After homogenization, the resulting solution is introduced into a 30 kD Ultrafree 05 ultrafiltration cartridge (Millipore) rinsed beforehand with 250 μl of water by centrifuging at 10 000 rev/min for 5 minutes. The plasma is introduced into the upper part of the cartridge once or twice, if the amounts to be filtered are greater than 500 μl.\n(§3) The cartridge is centrifuged at 10 000 rev/min for between 1 and 2 hours and then the filtrate is withdrawn. If appropriate, the second part of the plasma to be filtered is introduced into the upper part of the cartridge and the latter is again centrifuged. The exact amount of plasma introduced will have been weighed. The cartridge is centrifuged until the protein residue in the upper part of the cartridge represents no more than approximately 10% of the initial part.\n(§4) The filtrate is withdrawn and 210 μl of 3M KCl per ml of plasma filtered are added to the concentrate.\n(§5) After homogenization, the cartridge is centrifuged at 10 000 rev/min for between 1 and 4 hours. The cartridge is centrifuged until the protein residue in the upper part of the cartridge represents no more than approximately 10% of the initial part.\n(§6) The second filtrate is withdrawn and 210 μl of 3M KCl per ml of plasma filtered are added a second time to the concentrate.\n(§7) The third filtrate is withdrawn and 250 μl of water per ml of plasma filtered are added.\n(§8) The filtrates are combined and diluted 5 fold in water, and the whole is injected directly in anion-exchange HPLC. Immediately before injection, the pH of the injected solution is adjusted to 3 by addition of 1N HCl.\n(§9) The filtered plasma is analyzed by anion-exchange HPLC.\n(§10) The columns used are IonPAc As11 columns (Dionex), with a length of 25 cm and an internal diameter of 2 mm. The detector used is a UV spectrophotometer equipped with an array of diodes.\n(§11) The whole of the […] is injected after adjustment of the pH to 3 by addition of N HCl. The flow rate chosen is 0.22 ml/min; the column temperature is 40° C.\n(§12) Elution is carried out in gradient mode. The two solutions used are:\n(§13) Solvent A: NaH2PO4 2.5 mM, brought to pH 2.9 by addition of H3PO4\n(§14) Solvent B: NaClO4 1N, NaH2PO4 2.5 mM, brought to pH 3.0 by addition of H3PO4\n(§15) The elution gradient is as follows:\n(§16) T=0 min: % B=3; T=40 min: % B=60; T=60 min: % B=80\nThe evolution of a mixture of three octasaccharides in the blood of male dogs of the beagle breed is monitored. These 3 octasaccharides, symbolized ΔIIaIIsIsIs, ΔIsIIaIIsIs and ΔIIaIIsIsIs^1,6-anhydro, are the main affinity octasaccharides of the octasaccharide fractions of Lovenox®.\nThe mixture is administered subcutaneously to 3 male dogs of the beagle breed at a target dose with regard to each of these 3 constituents of 0.5 mg/kg. The administration solution is a 0.9% NaCl solution of the mixture of the 3 octasaccharides at the target concentration of 0.5 mg/ml. Blood samples of 5 ml are withdrawn at the times 0, 0.25 h, 0.5 h, 1 h, 2 h, 4 h, 6 h, 8 h, 24 h, 30 h and 48 h after administration. The blood samples withdrawn are collected in tubes containing 400 μl of a CTAD (citrate, theophylline, adenosine, dipyridamole) mixture. After homogenization, the solution is centrifuged at 3000 g at 15° C. for 15 min. The plasma supernatant is recovered and stored at −20° C. until use.\nFor the treatment of the plasma before HPLC injection, approximately 1 ml of plasma is withdrawn and weighed, to which 50 μl of a solution of the internal standard at a concentration of approximately 0.02 g/l are added.\nThe internal standard is chosen so that it is structurally as close as possible to the products to be analyzed. Its structure is given below.\nThe tetrasaccharide used makes it possible to correct the potentional influence of the variations in the extraction yield.\nThe plasma is treated and analyzed by HPLC."}, "[2]": {"test": "Monitoring of the plasma concentration of the main oligosaccharides of a VLMWH in human volunteers (plasma filtration + anion-exchange HPLC)", "assay_type": "in vivo", "experimental": "as §1, §2, §3, §4, §5, §6, §7, §8, §9, §10, §11, §12, §13, §14, §15, §16\nA VLMWH with an average molecular weight of 2500 Da is administered at the target dose of 1.4 mg/kg to human volunteers. Blood samples are withdrawn at the times 0, 0.25 h, 0.5 h, 0.75 h, 1 h, 1.25 h, 1.5 h, 2 h, 2.5 h, 3 h, 3.5 h, 4 h, 4.5 h, 5 h, 6 h, 7 h, 8 h, 9 h, 10 h, 12 h, 14 h and 24 h after administration.\nAs the VLMWH used is a complex mixture of oligosaccharides, the study was limited to certain components chosen from this mixture."}}}
{"smiles": "CC(=O)NC1C(OC2C(C(=O)O)OC(OC3C(COS(=O)(=O)O)OC(OC4C(C(=O)O)OC(OC5C(COS(=O)(=O)O)OC(OC6C(C(=O)O)OC(OC7C(COS(=O)(=O)O)OC(O)C(NS(=O)(=O)O)C7O)C(OS(=O)(=O)O)C6O)C(NS(=O)(=O)O)C5O)C(OS(=O)(=O)O)C4O)C(NS(=O)(=O)O)C3OS(=O)(=O)O)C(O)C2O)OC(COS(=O)(=O)O)C(OC2OC(C(=O)O)=CC(O)C2O)C1O", "note": "(centres unmarked) [ΔIIaIIsIsIs]", "values": [{"measurement": "affinity for ATIII", "setting": "ATIII", "value": "high affinity for ATIII"}, {"measurement": "plasma concentration", "setting": "[1]; Dog 1, 0 h after subcutaneous administration", "value": 0, "unit": "nM"}, {"measurement": "plasma concentration", "setting": "[1]; Dog 1, 0.25 h after subcutaneous administration", "value": 40, "unit": "nM"}, {"measurement": "plasma concentration", "setting": "[1]; Dog 1, 0.5 h after subcutaneous administration", "value": 180, "unit": "nM"}, {"measurement": "plasma concentration", "setting": "[1]; Dog 1, 1 h after subcutaneous administration", "value": 330, "unit": "nM"}, {"measurement": "plasma concentration", "setting": "[1]; Dog 1, 2 h after subcutaneous administration", "value": 590, "unit": "nM"}, {"measurement": "plasma concentration", "setting": "[1]; Dog 1, 4 h after subcutaneous administration", "value": 470, "unit": "nM"}, {"measurement": "plasma concentration", "setting": "[1]; Dog 1, 6 h after subcutaneous administration", "value": 360, "unit": "nM"}, {"measurement": "plasma concentration", "setting": "[1]; Dog 1, 8 h after subcutaneous administration", "value": 280, "unit": "nM"}, {"measurement": "plasma concentration", "setting": "[1]; Dog 1, 24 h after subcutaneous administration", "value": 40, "unit": "nM"}, {"measurement": "plasma concentration", "setting": "[1]; Dog 1, 30 h after subcutaneous administration", "value": 20, "unit": "nM"}, {"measurement": "plasma concentration", "setting": "[1]; Dog 1, 48 h after subcutaneous administration", "value": 0, "unit": "nM"}, {"measurement": "plasma concentration", "setting": "[1]; Dog 2, 0 h after subcutaneous administration", "value": 0, "unit": "nM"}, {"measurement": "plasma concentration", "setting": "[1]; Dog 2, 0.25 h after subcutaneous administration", "value": 50, "unit": "nM"}, {"measurement": "plasma concentration", "setting": "[1]; Dog 2, 0.5 h after subcutaneous administration", "value": 100, "unit": "nM"}, {"measurement": "plasma concentration", "setting": "[1]; Dog 2, 1 h after subcutaneous administration", "value": 200, "unit": "nM"}, {"measurement": "plasma concentration", "setting": "[1]; Dog 2, 2 h after subcutaneous administration", "value": 320, "unit": "nM"}, {"measurement": "plasma concentration", "setting": "[1]; Dog 2, 4 h after subcutaneous administration", "value": 300, "unit": "nM"}, {"measurement": "plasma concentration", "setting": "[1]; Dog 2, 6 h after subcutaneous administration", "value": 370, "unit": "nM"}, {"measurement": "plasma concentration", "setting": "[1]; Dog 2, 8 h after subcutaneous administration", "value": 260, "unit": "nM"}, {"measurement": "plasma concentration", "setting": "[1]; Dog 2, 24 h after subcutaneous administration", "value": 40, "unit": "nM"}, {"measurement": "plasma concentration", "setting": "[1]; Dog 2, 30 h after subcutaneous administration", "value": 10, "unit": "nM"}, {"measurement": "plasma concentration", "setting": "[1]; Dog 2, 48 h after subcutaneous administration", "value": 0, "unit": "nM"}, {"measurement": "plasma concentration", "setting": "[1]; Dog 3, 0 h after subcutaneous administration", "value": 0, "unit": "nM"}, {"measurement": "plasma concentration", "setting": "[1]; Dog 3, 0.25 h after subcutaneous administration", "value": 60, "unit": "nM"}, {"measurement": "plasma concentration", "setting": "[1]; Dog 3, 0.5 h after subcutaneous administration", "value": 170, "unit": "nM"}, {"measurement": "plasma concentration", "setting": "[1]; Dog 3, 1 h after subcutaneous administration", "value": 240, "unit": "nM"}, {"measurement": "plasma concentration", "setting": "[1]; Dog 3, 2 h after subcutaneous administration", "value": 330, "unit": "nM"}, {"measurement": "plasma concentration", "setting": "[1]; Dog 3, 4 h after subcutaneous administration", "value": 450, "unit": "nM"}, {"measurement": "plasma concentration", "setting": "[1]; Dog 3, 6 h after subcutaneous administration", "value": 360, "unit": "nM"}, {"measurement": "plasma concentration", "setting": "[1]; Dog 3, 8 h after subcutaneous administration", "value": 290, "unit": "nM"}, {"measurement": "plasma concentration", "setting": "[1]; Dog 3, 24 h after subcutaneous administration", "value": 40, "unit": "nM"}, {"measurement": "plasma concentration", "setting": "[1]; Dog 3, 30 h after subcutaneous administration", "value": 20, "unit": "nM"}, {"measurement": "plasma concentration", "setting": "[1]; Dog 3, 48 h after subcutaneous administration", "value": 0, "unit": "nM"}, {"measurement": "plasma concentration", "setting": "[2]; 0 h after administration of VLMWH (2500 Da) 1.4 mg/kg", "value": 0, "unit": "nM"}, {"measurement": "plasma concentration", "setting": "[2]; 0.25 h after administration of VLMWH (2500 Da) 1.4 mg/kg", "value": 10, "unit": "nM"}, {"measurement": "plasma concentration", "setting": "[2]; 0.5 h after administration of VLMWH (2500 Da) 1.4 mg/kg", "value": 30, "unit": "nM"}, {"measurement": "plasma concentration", "setting": "[2]; 0.75 h after administration of VLMWH (2500 Da) 1.4 mg/kg", "value": 20, "unit": "nM"}, {"measurement": "plasma concentration", "setting": "[2]; 1 h after administration of VLMWH (2500 Da) 1.4 mg/kg", "value": 30, "unit": "nM"}, {"measurement": "plasma concentration", "setting": "[2]; 1.25 h after administration of VLMWH (2500 Da) 1.4 mg/kg", "value": 40, "unit": "nM"}, {"measurement": "plasma concentration", "setting": "[2]; 1.5 h after administration of VLMWH (2500 Da) 1.4 mg/kg", "value": 40, "unit": "nM"}, {"measurement": "plasma concentration", "setting": "[2]; 2 h after administration of VLMWH (2500 Da) 1.4 mg/kg", "value": 40, "unit": "nM"}, {"measurement": "plasma concentration", "setting": "[2]; 2.5 h after administration of VLMWH (2500 Da) 1.4 mg/kg", "value": 30, "unit": "nM"}, {"measurement": "plasma concentration", "setting": "[2]; 3 h after administration of VLMWH (2500 Da) 1.4 mg/kg", "value": 30, "unit": "nM"}, {"measurement": "plasma concentration", "setting": "[2]; 3.5 h after administration of VLMWH (2500 Da) 1.4 mg/kg", "value": 40, "unit": "nM"}, {"measurement": "plasma concentration", "setting": "[2]; 4 h after administration of VLMWH (2500 Da) 1.4 mg/kg", "value": 20, "unit": "nM"}, {"measurement": "plasma concentration", "setting": "[2]; 4.5 h after administration of VLMWH (2500 Da) 1.4 mg/kg", "value": 40, "unit": "nM"}, {"measurement": "plasma concentration", "setting": "[2]; 5 h after administration of VLMWH (2500 Da) 1.4 mg/kg", "value": 30, "unit": "nM"}, {"measurement": "plasma concentration", "setting": "[2]; 6 h after administration of VLMWH (2500 Da) 1.4 mg/kg", "value": 20, "unit": "nM"}, {"measurement": "plasma concentration", "setting": "[2]; 7 h after administration of VLMWH (2500 Da) 1.4 mg/kg", "value": 40, "unit": "nM"}, {"measurement": "plasma concentration", "setting": "[2]; 8 h after administration of VLMWH (2500 Da) 1.4 mg/kg", "value": 20, "unit": "nM"}, {"measurement": "plasma concentration", "setting": "[2]; 9 h after administration of VLMWH (2500 Da) 1.4 mg/kg", "value": 20, "unit": "nM"}, {"measurement": "plasma concentration", "setting": "[2]; 10 h after administration of VLMWH (2500 Da) 1.4 mg/kg", "value": 20, "unit": "nM"}, {"measurement": "plasma concentration", "setting": "[2]; 12 h after administration of VLMWH (2500 Da) 1.4 mg/kg", "value": 30, "unit": "nM"}, {"measurement": "plasma concentration", "setting": "[2]; 14 h after administration of VLMWH (2500 Da) 1.4 mg/kg", "value": 20, "unit": "nM"}, {"measurement": "plasma concentration", "setting": "[2]; 24 h after administration of VLMWH (2500 Da) 1.4 mg/kg", "value": 10, "unit": "nM"}]}
